Laboratory results as given in US8871726B2, “C-aryl glucoside derivative, preparation method therefor, and use thereof” (Shanghai Allist Pharmaceuticals, Inc., priority 2010, dated 2014).

Legend:
normal rat = test: Effect on the urine glucose excretion of the normal rat; format: in vivo; conditions: normal SD rats, single intragastric oral administration, then glucose 2 g/kg; in comparison with the blank control, P<0.01, dosage-dependent
Excerpt: The drug effect of promoting the urine glucose excretion can be determined according to the conventional assay. One preferable evaluation assay is to detect the effect of the present compound on the urine glucose excretion of the normal rat. The assay can be conducted as follows. Thirty 7-week-old male SD rats (about 200 g) are used in the assay. The tested compound having a purity of 97.8% is formulated with 0.75% CMC-Na. […] The SD rats are acclimatized for 7 days, and then placed in the metabolic cages. The rats are fasted overnight (18 hr) under the free access to water. The basic urine samples are collected, and then thirty rats are weighed and grouped randomly into five groups, six rats per group. The rats are administered with the tested compounds or the positive control drug at low dosage, medium dosage, or high dosage. Fifteen minutes after the administration, the rats are intragastrically administrated with 50% glucose solution (2 g/kg). For ensuring a complete collection of the 24-hour urine, the rats are immediately placed in the metabolic cage after the administration of the tested compounds or the positive control drug. One hour after the administration of the glucose solution, the feeds are supplied to the rats. The urines after the administration of the tested compounds or the positive control drug are collected for 24 hours, and then the urine volumes are calculated and the urine glucose concentrations are detected.
The data are analyzed with the software SPSS 12.0, and the quantized data are expressed in “average±standard deviation”. Multiple sets of data are compared according to the analysis of variance (One-way ANOVA). P<0.05 represents statistical difference.
Thirty 7-week-old male SD rats (about 200 g) were used. The compound of Example 2 having a purity of 97.8% was chose as the present compound and formulated with 0.75% CMC-Na. […] The SD rats were acclimatized for 7 days, and then placed in the metabolic cages. The rats were fasted overnight (18 hr) under the free access to water. The basic urine samples were collected, and then thirty rats were weighed and grouped randomly into five groups, six rats per group.
Fifteen minutes after the administration, the rats were intragastrically administrated with 50% glucose solution (2 g/kg). For ensuring a complete collection of the 24-hour urine, the rats were immediately placed in the metabolic cage after the administration of the tested compounds or the positive control drug. […] The urines after the administration of the tested compounds or the positive control drug were collected for 24 hours, and then the urine volumes were calculated and the urine glucose concentrations were detected.
The data were analyzed with the software SPSS 12.0, and the quantized data were expressed in “average±standard deviation”. […]

human SGLT-1 = target: T1, human SGLT-1 (Homo sapiens, UniProt P13866); test: Inhibitory effect on human SGLT-1 (14C-methyl-a-D-glucopyranoside uptake in transfected NIH3T3 cells); format: cell-based; conditions: NIH3T3 cells expressing human SGLT-1; read-out: IC50 value for inhibiting the human SGLT-1
T1 sequence (P13866 1-664): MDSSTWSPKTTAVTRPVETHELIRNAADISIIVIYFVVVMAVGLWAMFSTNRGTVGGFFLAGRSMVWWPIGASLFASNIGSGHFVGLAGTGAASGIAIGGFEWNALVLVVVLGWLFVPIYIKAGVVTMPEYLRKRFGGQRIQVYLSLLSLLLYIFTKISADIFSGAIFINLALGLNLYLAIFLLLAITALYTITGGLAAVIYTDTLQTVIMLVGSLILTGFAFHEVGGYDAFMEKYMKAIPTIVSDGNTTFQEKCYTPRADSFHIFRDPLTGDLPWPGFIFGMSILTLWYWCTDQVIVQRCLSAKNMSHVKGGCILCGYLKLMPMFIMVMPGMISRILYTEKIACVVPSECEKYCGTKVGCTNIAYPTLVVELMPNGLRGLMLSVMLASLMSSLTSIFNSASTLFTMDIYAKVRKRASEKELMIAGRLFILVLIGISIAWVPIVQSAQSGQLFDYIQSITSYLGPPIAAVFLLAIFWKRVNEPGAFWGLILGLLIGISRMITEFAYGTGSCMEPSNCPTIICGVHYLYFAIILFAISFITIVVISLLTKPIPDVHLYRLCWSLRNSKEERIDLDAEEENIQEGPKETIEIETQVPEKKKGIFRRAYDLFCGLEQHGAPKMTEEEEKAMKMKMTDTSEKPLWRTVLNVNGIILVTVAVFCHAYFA
Procedure: (§1) 0.2% gelatin was plated on a 24-well plate, and the plate was kept overnight. The plate was washed with PBS once before use. The NIH3T3 cells expressing human SGLT-1 by transfection were inoculated into the 24-well plate in 100,000 cells per well and 1 mL culture medium per well. On the third day, the culture medium was changed once, and simultaneously sodium butyrate was added thereto with a final concentration of 2 mM. The cells were washed with KRH-Na^+ (500 μL) twice, and then incubated with KRH-Na^+ (500 μL) for 30 minutes. The cells were then treated with 200 μL of KRH-Na^+ containing the compound of Example 2, and 50 μL of an uptake buffer (KRH-Na^+ plus methyl-a-D-[U-14C] glucopyranoside and 1 mM methyl-a-D-glucopyranoside). The cells were washed with 500 μL wash buffer thrice with the operation on ice, and baked overnight. The cells were lysed with 200 μL of 0.25N NaOH at 4° C. for 1 hr. The lysate was removed into an EPPENDORF tube, and centrifuged at 4° C. under 12000 g for 5 mins. […] of supernatant was placed in a 2 mL EPPENDORF tube, and 1.7 mL of scintillation cocktail was added thereto. The mixture was shaked vigorously, and then counted. The inhibition rate of the compound of Example 2 at each of concentrations on the transporting activity was calculated.
(§2) IC50 value could be determined by nonlinear curve fitting of sample activities vs. sample concentrations. […]

human SGLT-2 = target: T2, human SGLT-2 (Homo sapiens, UniProt P31639); test: Inhibitory effect on human SGLT-2 (14C-methyl-a-D-glucopyranoside uptake in transfected NIH3T3 cells); format: cell-based; conditions: NIH3T3 cells expressing human SGLT-2; read-out: IC50 value for inhibiting the human SGLT-2
T2 construct: expressed in transfected cells; host or cells: NIH3T3 cells
T2 sequence (P31639 1-672): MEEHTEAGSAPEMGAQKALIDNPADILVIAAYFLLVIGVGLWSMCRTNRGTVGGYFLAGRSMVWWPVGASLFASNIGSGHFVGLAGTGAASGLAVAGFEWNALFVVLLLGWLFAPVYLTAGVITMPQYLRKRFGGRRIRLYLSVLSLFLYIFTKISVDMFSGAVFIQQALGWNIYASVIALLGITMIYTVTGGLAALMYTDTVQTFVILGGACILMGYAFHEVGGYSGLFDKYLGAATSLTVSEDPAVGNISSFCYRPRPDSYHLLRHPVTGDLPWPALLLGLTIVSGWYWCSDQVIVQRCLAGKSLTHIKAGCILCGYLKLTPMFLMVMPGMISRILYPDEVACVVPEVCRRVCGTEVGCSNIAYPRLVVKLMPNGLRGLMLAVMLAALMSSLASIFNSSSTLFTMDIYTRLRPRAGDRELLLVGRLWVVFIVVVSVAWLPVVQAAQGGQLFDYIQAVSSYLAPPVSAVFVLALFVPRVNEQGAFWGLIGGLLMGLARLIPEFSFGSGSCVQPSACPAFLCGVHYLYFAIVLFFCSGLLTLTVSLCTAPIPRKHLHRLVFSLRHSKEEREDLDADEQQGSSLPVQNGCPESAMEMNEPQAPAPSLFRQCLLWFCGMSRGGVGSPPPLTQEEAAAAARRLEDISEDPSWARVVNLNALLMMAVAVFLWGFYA
Procedure: as §1, with “SGLT-2” for “SGLT-1”
as §2

Row | IC50 (human SGLT-1) [µM] | IC50 (human SGLT-2) [µM] | SMILES | 24-hour urine glucose masses (normal rat) | 24-hour urine volumes (normal rat)
1 | – | – | CCOc1ccc(Cc2cc([C@@H]3O[C@H](CO)[C@@H](O)[C@H](O)[C@H]3O)ccc2Cl)cc1 [Dapagliflozin, reference compound] | remarkably increased | remarkably increased
2 | 28.7 | 0.000172 | CS[C@H]1O[C@@H](c2ccc(C)c(Cc3ccc(-c4ccc(F)cc4)s3)c2)[C@H](O)[C@@H](O)[C@@H]1O [Example 2, (2S,3R,4R,5S,6R)-2-[3-((5-(4-fluorophenyl)thienyl)-2-methylene)-4-methylphenyl)-6-methylthio-tetrahydropyran-3,4,5-triol] | remarkably increased | remarkably increased
